Key:
Half-life in mice = details: mouse, in vivo
[1] = tested on: HexA/B from human placenta; test: Hexosaminidase A/B assay; type: biochemical
[2] = tested on: Line 61 α-synuclein transgenic mice; test: Beam walk test in Line 61 α-synuclein transgenic mice, chronic treatment; type: in vivo, mouse; details: Line 61 mice, 30 and 100 mg/kg/day oral, after 12 weeks, persisted to week 24
hTauP301L mice = test: Chronic; type: in vivo, mouse; details: P301L mice
[3] = tested on: GFAP (astrogliosis), pS129 and human α-synuclein; test: GFAP immunoassay and histopathology in Line 61 mice; type: in vivo, mouse; details: hippocampus, 24 weeks
[4] = tested on: brain protein and α-synuclein O-GlcNAcylation; test: O-protein and O-GlcNAcylated α-synuclein; details: Line 61 mice; for increase in brain protein O-GlcNAcylation (mean): 24 weeks, t = 4 h post-dose
recombinant human HexA = biological target: T1, recombinant human HexA (Homo sapiens, UniProt P06865); test: Hexosaminidase A assay; type: biochemical
T1 sequence (P06865 89-529): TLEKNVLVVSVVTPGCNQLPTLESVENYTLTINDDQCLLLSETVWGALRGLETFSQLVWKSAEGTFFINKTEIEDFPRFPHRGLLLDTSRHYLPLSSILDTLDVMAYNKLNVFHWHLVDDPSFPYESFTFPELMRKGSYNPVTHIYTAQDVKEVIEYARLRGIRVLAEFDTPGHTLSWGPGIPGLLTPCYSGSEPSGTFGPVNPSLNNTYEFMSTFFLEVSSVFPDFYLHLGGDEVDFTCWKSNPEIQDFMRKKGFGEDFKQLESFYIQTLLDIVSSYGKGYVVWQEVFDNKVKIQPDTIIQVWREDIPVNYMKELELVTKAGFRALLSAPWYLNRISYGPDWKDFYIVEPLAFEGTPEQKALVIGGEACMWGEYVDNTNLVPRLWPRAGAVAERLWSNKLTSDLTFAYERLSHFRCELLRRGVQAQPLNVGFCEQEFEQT

[5] = tested on: protein O-GlcNAcylation in human PBMC; test: In vitro PBMC cell-based assay, human PBMC; details: 4 h, read-out: EC50, protein O-GlcNAcylation in human PBMC
[6] = cited from earlier work
[7] = up to the highest concentration tested (30 μM)

SMILES: CC(=O)Nc1nnc(N2CCN([C@@H](C)c3ccc4c(c3)OCO4)CC2)s1 [ASN90, (S)-N-(5-(4-(1-(benzo[d][1,3]dioxol-5-yl)ethyl)piperazin-1-yl)-1,3,4-thiadiazol-2-yl)acetamide]
- half-life (Half-life in mice): 2.8 h
- inhibitory activity on HexA/B [1, 7]: no inhibitory activity
- motor performance in three types of beam walk (slips) [2]: highly significant treatment benefit
- survival (hTauP301L mice; 30 and 100 mg/kg/day oral, 6 months): significantly increased survival
- effect on pathogenic tau pS202/205 (AT8) (hTauP301L mice; brainstem and hippocampus, chronic treatment): no statistically significant treatment effects
- object size for pS129 α-synuclein immunoreactivity [3]: significant decrease
- total α-synuclein immunoreactivity [3]: unchanged
- increase in brain protein O-GlcNAcylation (mean) ([4]; 30 mg/kg/day): +78%
- increase of O-GlcNAcylated α-synuclein as % of total ([4]; 100 mg/kg, chronic, vs vehicle): 1.7 fold
- increase in brain protein O-GlcNAcylation (mean) ([4]; 100 mg/kg/day): +105%
- inhibitory activity on HexA (recombinant human HexA; [7]): no inhibitory activity
- EC50 [5]: 209 nM

SMILES: CC(=O)N[C@H]1/C(=N/OC(=O)Nc2ccccc2)O[C@H](CO)[C@@H](O)[C@@H]1O [PUGNAc, reference compound]
- IC50 ([1]; read-out: IC50 HexA/B): 31 nM
- IC50 (recombinant human HexA): 490 nM

SMILES: CCN=C1N[C@@H]2[C@@H](O)[C@H](O)[C@@H](CO)O[C@@H]2S1 [Thiamet G]
- brain-to-plasma ratio [6]: 0.1

Reference: publication PMC9026285 (ACS Chemical Neuroscience, 2022)
